From patent publication US3960877A, “N-monosubstituted-2,3-pyridinedicarboxamides, and related compounds” (priority 1974, dated 1976)

Experiments:
Format in all cases: in vivo
[1] = tested on: Velvetleaf; test: Postemergence herbicidal activity, % control of plant growth; details: Abutilon theophrasti, post-emergence, 264 h, 8 lb/acre, about 11 days
Procedure, shortened: (§1)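 Application rate was 8 lb/acre, sprayed from a roughly 2 percent by weight solution in acetone and/or alcohol onto soil and plants about two weeks after sowing. Control was rated visually around 11 days later.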

[2] = tested on: Curled Dock; test: as above; details: post-emergence, 264 h, 8 lb/acre, about 11 days
Procedure, shortened: as §1

[3] = tested on: Johnsongrass; test: as above; details: Sorghum halepense, post-emergence, 264 h, 8 lb/acre, about 11 days
Procedure, shortened: as §1

[4] = tested on: Nutgrass; test: as above; details: post-emergence, 264 h, 8 lb/acre, about 11 days
Procedure, shortened: as §1

[5] = tested on: Yellow Rocket; test: as above; details: post-emergence, 264 h, 8 lb/acre, about 11 days
Procedure, shortened: as §1

[6] = tested on: Chickweed; test: as above; details: post-emergence, 264 h, 8 lb/acre, about 11 days
Procedure, shortened: as §1

[7] = tested on: Lambsquarters; test: as above; details: Chenopodium album, post-emergence, 264 h, 8 lb/acre, about 11 days
Procedure, shortened: as §1

[8] = tested on: Alfalfa; test: as above; details: Medicago sativa, post-emergence, 264 h, 8 lb/acre, about 11 days
Procedure, shortened: as §1

[9] = tested on: Cucumber; test: as above; details: Cucumis sativus, post-emergence, 264 h, 8 lb/acre, about 11 days
Procedure, shortened: as §1

[10] = tested on: Corn; test: as above; details: Zea mays, post-emergence, 264 h, 8 lb/acre, about 11 days
Procedure, shortened: as §1

[11] = tested on: Foxtail; test: as above; details: Setaria, post-emergence, 264 h, 8 lb/acre, about 11 days
Procedure, shortened: as §1

[12] = tested on: Barnyard Grass; test: as above; details: Echinochloa crus-galli, post-emergence, 264 h, 8 lb/acre, about 11 days
Procedure, shortened: as §1

[13] = tested on: Wild Oats; test: as above; details: Avena fatua, post-emergence, 264 h, 8 lb/acre, about 11 days
Procedure, shortened: as §1

[14] = tested on: Snapbeans; test: as above; details: post-emergence, 264 h, 8 lb/acre, about 11 days
Procedure, shortened: as §1

[15] = tested on: Pigweed; test: as above; details: Amaranthus retroflexus, post-emergence, 264 h, 8 lb/acre, about 11 days
Procedure, shortened: as §1

[16] = tested on: Cheatgrass; test: as above; details: Bromus tectorum, post-emergence, 264 h, 8 lb/acre, about 11 days
Procedure, shortened: as §1

[17] = tested on: Crabgrass; test: as above; details: Digitaria sanguinalis, post-emergence, 264 h, 8 lb/acre, about 11 days
Procedure, shortened: as §1

[18] = tested on: Velvetleaf; test: Preemergence herbicidal activity, % control of plant growth; details: Abutilon theophrasti, pre-emergence, 504 h, 16 lb/acre, about 3 weeks
Procedure, shortened: (§2)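 Freshly sown soil received a spray of the test compound, about 2% by weight in acetone and/or alcohol, delivering 16 lb per acre of soil surface before seedlings emerged. Herbicidal effect was judged by eye roughly three weeks afterward relative to untreated areas.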

[19] = tested on: Curled Dock; test: as above; details: pre-emergence, 504 h, 16 lb/acre, about 3 weeks
Procedure, shortened: as §2

[20] = tested on: Johnsongrass; test: as above; details: Sorghum halepense, pre-emergence, 504 h, 16 lb/acre, about 3 weeks
Procedure, shortened: as §2

[21] = tested on: Nutgrass; test: as above; details: pre-emergence, 504 h, 16 lb/acre, about 3 weeks
Procedure, shortened: as §2

[22] = tested on: Yellow Rocket; test: as above; details: pre-emergence, 504 h, 16 lb/acre, about 3 weeks
Procedure, shortened: as §2

[23] = tested on: Chickweed; test: as above; details: pre-emergence, 504 h, 16 lb/acre, about 3 weeks
Procedure, shortened: as §2

[24] = tested on: Lambsquarters; test: as above; details: Chenopodium album, pre-emergence, 504 h, 16 lb/acre, about 3 weeks
Procedure, shortened: as §2

[25] = tested on: Alfalfa; test: as above; details: Medicago sativa, pre-emergence, 504 h, 16 lb/acre, about 3 weeks
Procedure, shortened: as §2

[26] = tested on: Cucumber; test: as above; details: Cucumis sativus, pre-emergence, 504 h, 16 lb/acre, about 3 weeks
Procedure, shortened: as §2

[27] = tested on: Corn; test: as above; details: Zea mays, pre-emergence, 504 h, 16 lb/acre, about 3 weeks
Procedure, shortened: as §2

[28] = tested on: Foxtail; test: as above; details: Setaria, pre-emergence, 504 h, 16 lb/acre, about 3 weeks
Procedure, shortened: as §2

[29] = tested on: Barnyard Grass; test: as above; details: Echinochloa crus-galli, pre-emergence, 504 h; barnyard grass; 16 lb/acre; about 3 weeks
Procedure, shortened: as §2

[30] = tested on: Wild Oats; test: as above; details: Avena fatua, pre-emergence, 504 h, 16 lb/acre, about 3 weeks
Procedure, shortened: as §2

[31] = tested on: Snapbeans; test: as above; details: pre-emergence, 504 h, 16 lb/acre, about 3 weeks
Procedure, shortened: as §2

[32] = tested on: Pigweed; test: as above; details: Amaranthus retroflexus, pre-emergence, 504 h, 16 lb/acre, about 3 weeks
Procedure, shortened: as §2

[33] = tested on: Cheatgrass; test: as above; details: Bromus tectorum, pre-emergence, 504 h, 16 lb/acre, about 3 weeks
Procedure, shortened: as §2

[34] = tested on: Crabgrass; test: as above; details: Digitaria sanguinalis, pre-emergence, 504 h, 16 lb/acre, about 3 weeks
Procedure, shortened: as §2

[35] = tested on: undesirable plants of both the monocotyledonous and the dicotyledonous species; test: Herbicidal activity, general
Text: All of the 3-substituted compounds of the pyrido [3,2-d]pyrimidine-2,4(1H,3H)-dione and lumazine families made from intermediate amides produced by the method of this invention have an unexpectedly high order of herbicidal activity.
In using the compound, seeds of the types of plants set forth in Table II were sown in fresh soil. In the preemergence test the soil was sprayed with a solution of the test compound immediately after the seeds were planted, and before any noticeable growth developed. The solution was about a 2 percent by weight solution of the compound in acetone and/or alcohol. The compound was applied at the rate of 16 pounds per acre of soil surface.
Approximately 3 weeks after spray application, the herbicidal activity of the compound was determined by visual observation of the treated area in comparison with untreated control areas. These observations are reported below in Table II wherein the average activity rating is reported as the percent control of plant growth.
In the postemergence test the soil and developing plants were sprayed approximately 2 weeks after the seeds were sown. The compound was applied at the rate of 8 pounds per acre from about a 2 percent by weight solution of the test compound in acetone and/or alcohol. The postemergence herbicidal activity was measured in the same way as the preemergence activity; i.e. visual observation approximately 11 days after spraying, and expressed as the percent control of plant growth.

| SMILES | pest or weed control at 8966.8 g/ha [1] | pest or weed control at 8966.8 g/ha [2] | pest or weed control at 8966.8 g/ha [3] | pest or weed control at 8966.8 g/ha [4] | pest or weed control at 8966.8 g/ha [5] | pest or weed control at 8966.8 g/ha [6] | pest or weed control at 8966.8 g/ha [7] | pest or weed control at 8966.8 g/ha [8] | pest or weed control at 8966.8 g/ha [9] | plant injury at 8966.8 g/ha [10] | pest or weed control at 8966.8 g/ha [11] | pest or weed control at 8966.8 g/ha [12] | pest or weed control at 8966.8 g/ha [13] | pest or weed control at 8966.8 g/ha [14] | pest or weed control at 8966.8 g/ha [15] | pest or weed control at 8966.8 g/ha [16] | pest or weed control at 8966.8 g/ha [17] | pest or weed control at 17933.6 g/ha [18] | pest or weed control at 17933.6 g/ha [19] | pest or weed control at 17933.6 g/ha [20] | other results |
| --- | --- | --- | --- | --- | --- | --- | --- | --- | --- | --- | --- | --- | --- | --- | --- | --- | --- | --- | --- | --- | --- |
| CC(C)n1c(=O)[nH]c2cccnc2c1=O [3-isopropyl-pyrido[3,2-d]pyrimidine-2,4(1H,3H)-dione] | 100% | 100% | 90% | 50% | 100% | 70% | 100% | 90% | 100% | 30% | 100% | 80% | 70% | 90% | 100% | 50% | 100% | 100% | 100% | 100% | pest or weed control at 17933.6 g/ha [21]: 20%; pest or weed control at 17933.6 g/ha [22]: 100%; pest or weed control at 17933.6 g/ha [23]: 100%; pest or weed control at 17933.6 g/ha [24]: 90%; pest or weed control at 17933.6 g/ha [25]: 100%; pest or weed control at 17933.6 g/ha [26]: 100%; plant injury at 17933.6 g/ha [27]: 100%; pest or weed control at 17933.6 g/ha [28]: 100%; pest or weed control at 17933.6 g/ha [29]: 100%; pest or weed control at 17933.6 g/ha [30]: 100%; pest or weed control at 17933.6 g/ha [31]: 100%; pest or weed control at 17933.6 g/ha [32]: 100%; pest or weed control at 17933.6 g/ha [33]: 100%; pest or weed control at 17933.6 g/ha [34]: 100%; order of herbicidal activity ([35]; in vivo): high order of activity |
| CCC(C)n1c(=O)[nH]c2cccnc2c1=O (stereo not shown) [3-sec-butyl-pyrido[3,2-d] pyrimidine-2,4(1H,3H)-dione] | 100% | 100% | 100% | 100% | 100% | 100% | 100% | 100% | 100% | 90% | 100% | 100% | 100% | 100% | 100% | 100% | 100% | 100% | 100% | 100% | pest or weed control at 17933.6 g/ha [21]: 100%; pest or weed control at 17933.6 g/ha [22]: 100%; pest or weed control at 17933.6 g/ha [23]: 100%; pest or weed control at 17933.6 g/ha [24]: 100%; pest or weed control at 17933.6 g/ha [25]: 100%; pest or weed control at 17933.6 g/ha [26]: 100%; plant injury at 17933.6 g/ha [27]: 100%; pest or weed control at 17933.6 g/ha [28]: 100%; pest or weed control at 17933.6 g/ha [29]: 100%; pest or weed control at 17933.6 g/ha [30]: 100%; pest or weed control at 17933.6 g/ha [31]: 100%; pest or weed control at 17933.6 g/ha [32]: 100%; pest or weed control at 17933.6 g/ha [33]: 100%; pest or weed control at 17933.6 g/ha [34]: 100%; effective application rate ([35]; relative to 3-isopropyl-pyrido[3,2-d]pyrimidine-2,4(1H,3H)-dione, preemergence or postemergence): substantially the same application rates, e.g., as similar or salt solutions in water, are effective |
